{
  "source": "patent US20240327364A1",
  "about": "“THERAPEUTIC TARGETING OF GPR68 TO INDUCE FERROPTOSIS” (University Of Maryland, Baltimore, priority 2023, published 2024)",
  "key": {"MARK3": {"target": "T1, MARK3 (Homo sapiens, UniProt P27448)", "T1 construct": "purchased DiscoveRx (Fremont, CA)", "experiment": "KinomeScan", "assay_type": "binding", "conditions": "read-out: % Control"}, "QSK": {"target": "T2, QSK (Homo sapiens, UniProt Q9Y2K2)", "T2 construct": "purchased DiscoveRx (Fremont, CA)", "experiment": "KinomeScan", "assay_type": "binding", "conditions": "read-out: % Control"}, "IKK-beta": {"target": "T3, IKK-beta (Homo sapiens, UniProt O14920)", "T3 construct": "purchased DiscoveRx (Fremont, CA)", "experiment": "KinomeScan", "assay_type": "binding", "conditions": "read-out: % Control"}, "P2Y4": {"target": "T4, P2Y4 (Homo sapiens, UniProt P51582)", "T4 construct": "host or cells: Chem-1 cells with Gα15", "experiment": "GPCR Profiler", "assay_type": "cell-based"}, "PIK3CA(E545K)": {"target": "T5, PIK3CA(E545K) (Homo sapiens, UniProt P42336, E545K)", "T5 construct": "purchased DiscoveRx (Fremont, CA)", "T5 sequence (P42336 whole entry E545K)": "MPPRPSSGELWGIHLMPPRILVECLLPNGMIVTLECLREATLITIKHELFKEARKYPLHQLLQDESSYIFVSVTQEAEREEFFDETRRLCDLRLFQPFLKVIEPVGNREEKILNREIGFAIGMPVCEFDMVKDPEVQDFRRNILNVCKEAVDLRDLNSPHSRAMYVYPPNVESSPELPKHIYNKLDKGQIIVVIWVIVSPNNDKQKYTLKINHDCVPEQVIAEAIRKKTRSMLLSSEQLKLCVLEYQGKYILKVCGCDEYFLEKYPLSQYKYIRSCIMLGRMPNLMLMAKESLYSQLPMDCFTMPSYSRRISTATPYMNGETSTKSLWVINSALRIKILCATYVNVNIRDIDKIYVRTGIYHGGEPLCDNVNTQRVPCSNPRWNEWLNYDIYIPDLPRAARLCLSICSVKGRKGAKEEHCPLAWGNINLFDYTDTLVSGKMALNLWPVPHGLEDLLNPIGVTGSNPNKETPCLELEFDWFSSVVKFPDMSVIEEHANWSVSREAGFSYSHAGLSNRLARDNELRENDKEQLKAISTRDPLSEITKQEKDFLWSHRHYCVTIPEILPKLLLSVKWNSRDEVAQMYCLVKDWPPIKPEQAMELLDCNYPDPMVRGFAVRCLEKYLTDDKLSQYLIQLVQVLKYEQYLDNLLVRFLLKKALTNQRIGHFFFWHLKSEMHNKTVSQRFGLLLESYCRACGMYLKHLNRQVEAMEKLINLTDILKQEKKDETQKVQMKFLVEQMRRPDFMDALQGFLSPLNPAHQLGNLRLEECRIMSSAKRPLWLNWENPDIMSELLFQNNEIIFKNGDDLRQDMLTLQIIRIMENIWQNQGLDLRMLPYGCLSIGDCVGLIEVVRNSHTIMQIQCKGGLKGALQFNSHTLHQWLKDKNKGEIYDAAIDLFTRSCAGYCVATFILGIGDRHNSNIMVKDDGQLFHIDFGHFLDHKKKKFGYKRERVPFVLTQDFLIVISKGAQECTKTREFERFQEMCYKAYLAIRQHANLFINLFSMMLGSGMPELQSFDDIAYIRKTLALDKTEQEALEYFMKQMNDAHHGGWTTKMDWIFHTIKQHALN", "experiment": "KinomeScan", "assay_type": "binding", "conditions": "read-out: % Control"}, "CCR5": {"target": "T6, CCR5 (Macaca mulatta, UniProt P61813)", "T6 construct": "host or cells: Chem-1 cells with Gα15", "experiment": "GPCR Profiler", "assay_type": "cell-based"}, "MC2": {"target": "T7, MC2 (Homo sapiens, UniProt Q01718)", "T7 construct": "host or cells: Chem-1 cells with promiscuous Gα15", "experiment": "GPCR Profiler", "assay_type": "cell-based"}, "NTR1": {"target": "T8, NTR1 (Homo sapiens, UniProt P30989)", "T8 construct": "host or cells: Chem-1 cells expressing Gα15", "experiment": "GPCR Profiler", "assay_type": "cell-based"}, "ADRB3": {"target": "T9, ADRB3 (Homo sapiens, UniProt P13945)", "T9 construct": "host or cells: Chem-1 cells with promiscuous Gα15", "experiment": "GPCR Profiler", "assay_type": "cell-based", "conditions": "12.5 uM"}, "LPA5": {"target": "T10, LPA5 (Homo sapiens, UniProt Q9H1C0)", "T10 construct": "host or cells: Chem-1 cells with promiscuous Gα15", "experiment": "GPCR Profiler", "assay_type": "cell-based"}, "MYO3B": {"target": "T11, MYO3B (Homo sapiens, UniProt Q8WXR4)", "T11 construct": "purchased DiscoveRx", "experiment": "KinomeScan", "assay_type": "binding", "conditions": "read-out: % Control"}, "H1": {"target": "T12, H1 (Homo sapiens, UniProt P35367)", "T12 construct": "host or cells: Chem-1 cells with promiscuous Gα15", "experiment": "GPCR Profiler", "assay_type": "cell-based"}, "[1]": {"target": "T13, ABL1(F317L)-nonphosphorylated (Homo sapiens, UniProt P00519, F317L)", "T13 construct": "purchased DiscoveRx", "T13 sequence (P00519 242-493 F317L limits assumed)": "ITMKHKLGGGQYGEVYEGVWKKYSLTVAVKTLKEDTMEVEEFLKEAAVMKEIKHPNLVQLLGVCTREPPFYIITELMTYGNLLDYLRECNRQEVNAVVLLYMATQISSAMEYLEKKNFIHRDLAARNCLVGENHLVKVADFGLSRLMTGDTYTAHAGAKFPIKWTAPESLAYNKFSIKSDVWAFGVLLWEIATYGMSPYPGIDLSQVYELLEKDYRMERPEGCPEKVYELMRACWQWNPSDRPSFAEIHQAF", "experiment": "KinomeScan", "assay_type": "binding", "conditions": "read-out: % Control"}, "GCN2(Kin.Dom.2, S808G)": {"target": "T14, GCN2(Kin.Dom.2, S808G) (Homo sapiens, UniProt Q9P2K8, S808G)", "T14 construct": "GCN2(Kin.Dom.2, S808G); purchased DiscoveRx (Fremont, CA)", "T14 sequence (Q9P2K8 590-1001 S808G limits assumed)": "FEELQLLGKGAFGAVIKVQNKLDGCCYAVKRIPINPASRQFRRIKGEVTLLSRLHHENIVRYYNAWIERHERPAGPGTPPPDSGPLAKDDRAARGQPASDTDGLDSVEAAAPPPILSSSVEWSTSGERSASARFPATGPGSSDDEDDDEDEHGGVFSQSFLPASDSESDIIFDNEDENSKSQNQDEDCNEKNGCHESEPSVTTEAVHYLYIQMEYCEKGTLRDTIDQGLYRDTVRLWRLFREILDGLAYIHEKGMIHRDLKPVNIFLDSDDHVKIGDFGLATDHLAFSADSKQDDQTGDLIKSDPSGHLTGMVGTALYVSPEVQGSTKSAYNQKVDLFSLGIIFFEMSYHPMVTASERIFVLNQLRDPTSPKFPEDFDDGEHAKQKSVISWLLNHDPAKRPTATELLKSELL", "experiment": "KinomeScan", "assay_type": "binding", "conditions": "read-out: % Control"}, "FGFR4": {"target": "T15, FGFR4 (Homo sapiens, UniProt P22455)", "T15 construct": "purchased DiscoveRx (Fremont, CA)", "T15 sequence (P22455 22-802)": "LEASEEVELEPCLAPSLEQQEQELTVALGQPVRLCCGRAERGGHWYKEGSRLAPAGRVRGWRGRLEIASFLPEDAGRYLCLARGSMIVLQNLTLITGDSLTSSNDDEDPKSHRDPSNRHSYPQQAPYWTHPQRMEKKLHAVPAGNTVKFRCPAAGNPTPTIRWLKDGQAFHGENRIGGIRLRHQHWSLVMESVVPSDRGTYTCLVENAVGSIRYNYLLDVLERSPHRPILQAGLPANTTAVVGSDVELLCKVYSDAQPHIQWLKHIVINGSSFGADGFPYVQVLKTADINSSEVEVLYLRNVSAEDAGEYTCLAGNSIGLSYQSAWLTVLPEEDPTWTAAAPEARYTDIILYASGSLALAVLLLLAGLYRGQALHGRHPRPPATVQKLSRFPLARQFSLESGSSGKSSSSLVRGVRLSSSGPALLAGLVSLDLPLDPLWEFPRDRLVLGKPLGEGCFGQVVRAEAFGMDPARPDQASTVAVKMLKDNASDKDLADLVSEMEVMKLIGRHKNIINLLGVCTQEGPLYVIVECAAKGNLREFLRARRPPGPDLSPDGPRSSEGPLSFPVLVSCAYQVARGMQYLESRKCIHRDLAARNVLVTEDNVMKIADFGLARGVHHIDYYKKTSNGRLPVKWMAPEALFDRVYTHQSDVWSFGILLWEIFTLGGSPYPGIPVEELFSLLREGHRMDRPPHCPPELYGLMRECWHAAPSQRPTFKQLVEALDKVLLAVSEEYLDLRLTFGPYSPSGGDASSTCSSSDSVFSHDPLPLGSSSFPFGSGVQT", "experiment": "KinomeScan", "assay_type": "binding", "conditions": "read-out: % Control"}, "NEK2": {"target": "T16, NEK2 (Homo sapiens, UniProt P51955)", "T16 construct": "purchased DiscoveRx", "T16 sequence (P51955 whole entry)": "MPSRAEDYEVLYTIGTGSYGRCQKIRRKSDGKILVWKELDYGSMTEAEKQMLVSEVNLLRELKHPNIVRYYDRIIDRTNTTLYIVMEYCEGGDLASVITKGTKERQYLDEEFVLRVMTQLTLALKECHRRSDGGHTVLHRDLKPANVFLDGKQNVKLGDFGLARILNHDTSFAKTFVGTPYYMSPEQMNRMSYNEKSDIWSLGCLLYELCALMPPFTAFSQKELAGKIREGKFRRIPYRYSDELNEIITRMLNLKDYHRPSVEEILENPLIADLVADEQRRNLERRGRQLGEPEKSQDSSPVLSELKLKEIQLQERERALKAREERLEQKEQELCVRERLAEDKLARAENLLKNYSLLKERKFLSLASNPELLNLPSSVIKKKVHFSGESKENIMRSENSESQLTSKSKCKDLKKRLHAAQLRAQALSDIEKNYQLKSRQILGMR", "experiment": "KinomeScan", "assay_type": "binding", "conditions": "read-out: % Control"}, "CSNK1A1": {"target": "CSNK1A1 (Homo sapiens, UniProt P48729)", "sequence (P48729 whole entry)": "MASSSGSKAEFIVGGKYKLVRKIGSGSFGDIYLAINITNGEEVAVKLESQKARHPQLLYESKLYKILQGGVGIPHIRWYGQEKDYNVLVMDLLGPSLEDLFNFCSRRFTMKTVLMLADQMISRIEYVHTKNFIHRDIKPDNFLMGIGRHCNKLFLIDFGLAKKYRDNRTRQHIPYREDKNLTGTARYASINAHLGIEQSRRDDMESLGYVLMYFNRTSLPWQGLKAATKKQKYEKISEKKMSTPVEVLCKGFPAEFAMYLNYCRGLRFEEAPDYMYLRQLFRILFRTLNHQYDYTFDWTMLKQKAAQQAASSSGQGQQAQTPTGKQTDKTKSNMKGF", "experiment": "KinomeScan", "assay_type": "binding", "conditions": "read-out: % Control"}, "S1P4": {"target": "T17, S1P4 (Homo sapiens, UniProt O95977)", "T17 construct": "host or cells: Chem-1 cells with Gα15", "T17 sequence (O95977 whole entry, species assumed)": "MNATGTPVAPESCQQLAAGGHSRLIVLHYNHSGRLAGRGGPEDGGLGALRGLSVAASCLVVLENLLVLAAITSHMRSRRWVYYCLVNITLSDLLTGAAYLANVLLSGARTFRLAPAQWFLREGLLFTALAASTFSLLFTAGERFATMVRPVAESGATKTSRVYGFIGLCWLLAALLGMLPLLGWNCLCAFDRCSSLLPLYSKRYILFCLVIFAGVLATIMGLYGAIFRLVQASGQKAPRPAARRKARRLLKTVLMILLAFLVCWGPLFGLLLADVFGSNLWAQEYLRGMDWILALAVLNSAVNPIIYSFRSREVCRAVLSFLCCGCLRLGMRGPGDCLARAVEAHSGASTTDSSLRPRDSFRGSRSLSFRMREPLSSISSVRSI", "experiment": "GPCR Profiler", "assay_type": "cell-based"}, "M1": {"target": "T18, M1 (Homo sapiens, UniProt P11229)", "T18 construct": "host or cells: Chem-1 cells with promiscuous Gα15", "T18 sequence (P11229 whole entry)": "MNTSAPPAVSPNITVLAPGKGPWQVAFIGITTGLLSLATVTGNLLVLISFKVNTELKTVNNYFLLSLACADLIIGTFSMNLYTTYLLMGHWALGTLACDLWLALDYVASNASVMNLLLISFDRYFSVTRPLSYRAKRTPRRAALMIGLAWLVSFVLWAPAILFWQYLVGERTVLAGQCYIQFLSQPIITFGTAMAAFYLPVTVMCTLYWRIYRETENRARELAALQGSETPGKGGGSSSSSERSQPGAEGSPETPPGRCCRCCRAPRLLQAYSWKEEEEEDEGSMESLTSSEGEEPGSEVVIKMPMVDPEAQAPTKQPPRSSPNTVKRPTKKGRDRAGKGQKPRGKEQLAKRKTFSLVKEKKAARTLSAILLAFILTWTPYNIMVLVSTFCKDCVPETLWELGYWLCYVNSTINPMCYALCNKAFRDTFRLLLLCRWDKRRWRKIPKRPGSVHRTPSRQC", "experiment": "GPCR Profiler", "assay_type": "cell-based"}, "Daoy": {"tested_on": "Daoy", "experiment": "Cell Titer-Glo viability, Medulloblastoma", "assay_type": "cell-based", "conditions": "72 hours", "procedure": "(§1) OGM2 kills wide variety of cancer cell types. Cell sensitivity can be classified in to Very Sensitive (LC50<2 μM), Sensitive (LC50=2 to 10 μM), Mildly Sensitive (LC50>10 μM), and Refractory (no killing at 10 μM). The listed established cell were incubated with OGM2 at 2 μM or 10 μM for 72 hours under standard cell culture conditions, and relative cell number was assessed using Cell Titer-Glo Luminescent Cell Viability Assay (Promega™) following the manufacturer's instructions. Luminescence was determined using a Cytation 5 reader and Gen5 software package (BioTek™).\nCancer cells, which are very sensitive to killing by OGM2 (LCs <2 μM), with reported mRNA expression of GPR68 and the related proton sensing receptor GPR4. LC50's (concentrations causing 50% lethality) were determined using CellTiter-Glo (Promega™, G7570). Cells were plated in 12-well plates (CELLTREAT Scientific Products, 229112) in 1 ml of DMEM with high glucose, GlutaMAX, HEPES, or RPMI 1640 with Penicillin-Streptomycin (ThermoFisher™, 10564029, 11875119 and 15140122) and 10% FBS. Cells were incubated overnight at 37° C. in 5% CO2. Then 1 mL of fresh media was added with DMSO, OGM, or positive control (Erastin; APExBIO Technology, LLC, B1524) and cells incubated for 3 days. On the third day, all media was removed, cells were rinsed with 1×PBS, PBS was removed, and 200 μL of 1× Passive Lysis Buffer (Promega™, E1941) was added to each well. […]. […] Plates were briefly spun down and read on a GloMax-Multi Detection System (Promega™).\nThe cells listed in the tables above were incubated with OGM2 at 2 μM or 10 μM for 72 hours under standard cell culture conditions, and relative cell number was assessed using Cell Titer-Glo Luminescent Cell Viability Assay (Promega™) following the manufacturer's instructions. Luminescence was determined using a Cytation 5 reader and Gen5 software package (BioTek™). […] The consensus normalized expression value (“nTPM”=normalize transcript per million) was calculated as the maximum nTPM value for each gene in the two data sources."}, "HT-1080": {"tested_on": "HT-1080", "experiment": "Cell Titer-Glo viability, Fibrosarcoma", "assay_type": "cell-based", "procedure": "as §1\nCancer cells, which are very sensitive to killing by OGM2 (LCs <2 μM), with reported mRNA expression of GPR68 and the related proton sensing receptor GPR4. LC50's (concentrations causing 50% lethality) were determined using CellTiter-Glo (Promega™, G7570). Cells were plated in 12-well plates (CELLTREAT Scientific Products, 229112) in 1 ml of DMEM with high glucose, GlutaMAX, HEPES, or RPMI 1640 with Penicillin-Streptomycin (ThermoFisher™, 10564029, 11875119 and 15140122) and 10% FBS. Cells were incubated overnight at 37° C. in 5% CO2. Then 1 mL of fresh media was added with DMSO, OGM, or positive control (Erastin; APExBIO Technology, LLC, B1524) and cells incubated for 3 days. On the third day, all media was removed, cells were rinsed with 1×PBS, PBS was removed, and 200 μL of 1× Passive Lysis Buffer (Promega™, E1941) was added to each well. […]. Subsequently, 20 μL of lysate was added to 100 μL CellTiter-Glo™ reagent on a LUMITRAC 200 plate (Greiner™ bio-one, 82050-726). Plates were briefly spun down and read on a GloMax-Multi Detection System (Promega™).\nThe cells listed in the tables above were incubated with OGM2 at 2 μM or 10 μM for 72 hours under standard cell culture conditions, and relative cell number was assessed using Cell Titer-Glo Luminescent Cell Viability Assay (Promega™) following the manufacturer's instructions. Luminescence was determined using a Cytation 5 reader and Gen5 software package (BioTek™). RNA expression of GPR68 and GPR4 in the corresponding cancer cell lines are listed, according to the publicly available The Human Protein Atlas version 22.0 and Ensembl version 103.38 (see proteinatlas.org). The consensus normalized expression value (“nTPM”=normalize transcript per million) was calculated as the maximum nTPM value for each gene in the two data sources."}, "A2058": {"tested_on": "A2058", "experiment": "Scratch assay", "assay_type": "cell-based, human", "conditions": "20 hours, OGM2 5 uM"}},
  "data": [
    {"smiles": "CCc1ccc2c(c1)C1(NN=C(c3cccc4ccccc34)S1)C(=O)N2", "note": "(centres unmarked) [OGM1, 5-ethyl-5′-naphthalen-1-ylspiro[1H-indole-3,2′-3H-1,3,4-thiadiazole]-2-one]", "values": [
      {"measurement": "remaining binding at 10 µM", "setting": "MARK3", "value": 100, "unit": "%"},
      {"measurement": "remaining binding at 10 µM", "setting": "QSK", "value": 100, "unit": "%"},
      {"measurement": "remaining binding at 10 µM", "setting": "IKK-beta", "value": 92, "unit": "%"},
      {"measurement": "Antagonism", "setting": "P2Y4; 10 uM", "value": 5.4},
      {"measurement": "Agonism", "setting": "P2Y4; 12.5 uM", "value": "−0.8"},
      {"measurement": "remaining binding at 10 µM", "setting": "PIK3CA(E545K)", "value": 100, "unit": "%"},
      {"measurement": "Antagonism", "setting": "CCR5; 10 uM", "value": 15.8},
      {"measurement": "Agonism", "setting": "CCR5; 12.5 uM", "value": 2.5},
      {"measurement": "Antagonism", "setting": "MC2; 10 uM", "value": 3.9},
      {"measurement": "Agonism", "setting": "MC2; 12.5 uM", "value": 0.1},
      {"measurement": "Antagonism", "setting": "NTR1; 10 uM", "value": 1.6},
      {"measurement": "Agonism", "setting": "NTR1; 12.5 uM", "value": 1},
      {"measurement": "Agonism", "setting": "ADRB3", "value": "−0.2"},
      {"measurement": "Antagonism", "setting": "LPA5; 10 uM", "value": "−16.2"},
      {"measurement": "Agonism", "setting": "LPA5; 12.5 uM", "value": "−0.1"},
      {"measurement": "remaining binding at 10 µM", "setting": "MYO3B", "value": 100, "unit": "%"},
      {"measurement": "Antagonism", "setting": "H1; 10 uM", "value": "−17.2"},
      {"measurement": "Agonism", "setting": "H1; 12.5 uM", "value": 2.1},
      {"measurement": "remaining binding at 10 µM", "setting": "[1]", "value": 96, "unit": "%"},
      {"measurement": "remaining binding at 10 µM", "setting": "GCN2(Kin.Dom.2, S808G)", "value": 100, "unit": "%"},
      {"measurement": "remaining binding at 10 µM", "setting": "FGFR4", "value": 100, "unit": "%"},
      {"measurement": "remaining binding at 10 µM", "setting": "NEK2", "value": 78, "unit": "%"},
      {"measurement": "remaining binding at 10 µM", "setting": "CSNK1A1", "value": 75, "unit": "%"},
      {"measurement": "Antagonism", "setting": "S1P4; 10 uM", "value": "−5.2"},
      {"measurement": "Agonism", "setting": "S1P4; 12.5 uM", "value": 0.3},
      {"measurement": "Antagonism", "setting": "M1; 10 uM", "value": "−3.3"},
      {"measurement": "Agonism", "setting": "M1; 12.5 uM", "value": 0.8}
    ]},
    {"smiles": "CCc1ccc2c(c1)C1(NN=C(c3ccccc3)S1)C(=O)N2", "note": "(centres unmarked) [OGM2]", "values": [
      {"measurement": "% Survival 2 μM OGM", "setting": "Daoy", "value": 9.0, "unit": "%"},
      {"measurement": "% Survival 10 μM OGM", "setting": "Daoy", "value": 10.5, "unit": "%"},
      {"measurement": "CC50", "setting": "Daoy; Homo sapiens, Daoy, read-out: LC50 (the source's name)", "value": "< 2000", "unit": "nM"},
      {"measurement": "Class", "setting": "HT-1080", "value": "Sensitive (Sensitive (LC50=2 to 10 μM))"},
      {"measurement": "% Survival 2 μM OGM", "setting": "HT-1080; 72 hours", "value": 64.2, "unit": "%"},
      {"measurement": "% Survival 10 μM OGM", "setting": "HT-1080; 72 hours", "value": 21.4, "unit": "%"},
      {"measurement": "CC50", "setting": "HT-1080; Homo sapiens, HT-1080, 72 hours, read-out: LC50 (the source's name)", "value": "2000 to 10000", "unit": "nM"},
      {"measurement": "migration", "setting": "A2058", "value": "inhibited migration"}
    ]}
  ]
}
